The target of this assay is T1, STING (Homo sapiens, UniProt Q86WV6, G230A/H232R/R293Q/R71H).
T1 construct: host or cells: THP1-Dual KO-IFNAR2 cells
Briefly: STING reporter assay: luciferase reporter activity in THP1-Dual KO-IFNAR2 cells stimulated with 2'3'cGAMP. Format: cell-based. As to conditions: 2′3′cGAMP 15 μM final, 24h, read-out: hSTING: EC50. On the procedure:
STING pathway activation by the compounds described herein was measured using THIP1-Dua1™ cells (KO-IFNAR2).
TTIP1-Dual™ KO-IFNAR2 Cells (obtained from invivogen) were maintained in RPMI, 10% FCS, 5 ml P/S, 2 mM L-glut, 10 mM Hepes, and 1 mM sodium pyruvate. Compounds were spotted in empty 384 well tissue culture plates (Greiner 781182) by Echo for a final concentration of 0.0017-100 μM. Cells were plated into the TC plates at 40 μL per well, 2×10E6 cells/mL. For activation with STING ligand, 2′3′cGAMP (MW 718.38, obtained from Invivogen), was prepared in Optimem media.
The following solutions were prepared for each 1×384 plate: • Solution A: 2 mL Optimem with one of the following stimuli: • […] • Solution B: 2 mL Optimem with 60 μL Lipofectamine 2000->Incubate 5 min at RT
2 mL of solution A and 2 ml Solution B was mixed and incubated for 20 min at room temperature (RT). 20 uL of transfection solution (A+B) was added on top of the plated cells, with a final 2′3′cGAMP concentration of 15 μM. The plates were then centrifuged immediately at 340 g for 1 minute, after which they were incubated at 37° C., 5% C02, >98% humidity for 24h. Luciferase reporter activity was then measured. EC50 values were calculated by using standard methods known in the art.
Luciferase reporter assay: 10 μL of supernatant from the assay was transferred to white 384-plate with flat bottom and squared wells. One pouch of QUANTI-Luc™ Plus was dissolved in 25 mL of water. 100 μL of QLC Stabilizer per 25 mL of QUANTI-Luc™ Plus solution was added. 50 μL of QUANTI-Luc™ Plus/QLC solution per well was then added. Luminescence was measured on a Platereader (e.g., Spectramax I3X (Molecular Devices GF3637001)).
Luciferase reporter activity was then measured. EC50 values were calculated by using standard methods known in the art.
For orientation: A reporter such as luciferase makes a cellular process visible.

Each structure is given as a SMILES string.

T1 sequence (Q86WV6 whole entry R71H/G230A/H232R/R293Q): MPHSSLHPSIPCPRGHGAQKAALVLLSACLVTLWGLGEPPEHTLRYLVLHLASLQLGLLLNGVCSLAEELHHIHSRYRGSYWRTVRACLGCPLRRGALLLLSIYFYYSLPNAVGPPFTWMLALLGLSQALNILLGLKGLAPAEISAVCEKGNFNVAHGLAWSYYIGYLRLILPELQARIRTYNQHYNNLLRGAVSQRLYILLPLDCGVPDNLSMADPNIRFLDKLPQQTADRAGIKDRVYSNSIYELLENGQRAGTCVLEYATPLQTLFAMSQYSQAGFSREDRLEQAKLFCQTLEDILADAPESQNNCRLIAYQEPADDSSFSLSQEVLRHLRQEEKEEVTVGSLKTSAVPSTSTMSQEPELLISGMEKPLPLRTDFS

Take `O=C(NCc1ccc(F)c(OC(F)(F)F)c1)C(=O)Nc1c[nH]c2cc(F)c(F)cc12` [Compound 131, N1-(5,6-difluoro-1H-indol-3-yl)-N2-(4-fluoro-3-(trifluoromethoxy)benzyl) oxalamide]: the 50% effective concentration (EC50) fell in the range of 0.2 to 1 µM.
Take `Cc1c(CNC(=O)C(=O)Nc2c[nH]c3cc(F)c(F)cc23)cccc1C(F)(F)F` [Compound 132, N1-(5,6-difluoro-1H-indol-3-yl)-N2-(2-methyl-3-(trifluoromethyl)benzyl)oxalamide]: the EC50 fell in the range of 0.2 to 1 µM.
Next, `O=C(NCc1ccc(C(F)(F)F)c(Cl)c1)C(=O)Nc1c[nH]c2ccc(Br)cc12` [Compound 133]: 0.04 to 0.2 µM; `Cc1ccc(CNC(=O)C(=O)Nc2c[nH]c3ccc(-c4cccc(CO)c4)cc23)cc1C(F)(F)F` [Compound 134]: 0.2 to 1 µM; `O=C(NC[C@@H](C(F)F)C1CCCCC1)C(=O)Nc1c[nH]c2cc(F)c(F)cc12` [Compound 135]: 0.2 to 1 µM.
Next, `O=C(NC[C@H](C(F)F)C1CCCCC1)C(=O)Nc1c[nH]c2cc(F)c(F)cc12` [Compound 136]: 0.04 to 0.2 µM.
Next, `CC(C)(NC(=O)C(=O)Nc1c[nH]c2cc(F)c(F)cc12)c1ccc(C(F)(F)F)c(Cl)c1` [Compound 137]: 0.2 to 1 µM; `O=C(NCCc1ccccc1C(F)(F)F)C(=O)Nc1c[nH]c2cc(F)c(F)cc12` [Compound 138, N1-(5,6-difluoro-1H-indol-3-yl)-N2-(2-(trifluoromethyl)phenethyl) oxalamide]: 0.2 to 1 µM.
`O=C(NCC(c1ccccc1)C(F)F)C(=O)Nc1c[nH]c2cc(F)c(F)cc12` (stereo not drawn) [Compound 139]: the EC50 is 0.2 to 1 µM.
Regarding `O=C(NCC1(c2cccc(Cl)c2)CCOCC1)C(=O)Nc1c[nH]c2cc(F)c(F)cc12` [Compound 140], the concentration giving a half-maximal response (EC50) fell in the range of 1 to 5 µM.
The figure for `CN(Cc1ccc(C(F)(F)F)c(Cl)c1)C(=O)C(=O)Nc1c[nH]c2cc(F)c(F)cc12` [Compound 141] is 5 to 100 µM.
Consider `O=C(NCC(C(F)F)C1CCCCC1)C(=O)Nc1c[nH]c2cc(F)c(F)cc12` (stereo not drawn) [Compound 142], for which the half-maximal effective concentration (EC50) is 0.2 to 1 µM.
The figure for `O=C(NCCc1ccc(C(F)(F)F)c(Cl)c1)C(=O)Nc1c[nH]c2cc(F)c(F)cc12` [Compound 143] is 0.2 to 1 µM.
Regarding `O=C(NCCc1ccc(C(F)(F)F)cc1)C(=O)Nc1c[nH]c2cc(F)c(F)cc12` [Compound 144, N1-(5,6-difluoro-1H-indol-3-yl)-N2-(4-(trifluoromethyl)phenethyl) oxalamide], the EC50 is 0.2 to 1 µM.
The figure for `O=C(NCC1CCc2ccccc2O1)C(=O)Nc1c[nH]c2cc(F)c(F)cc12` (stereo not drawn) [Compound 145, N-(chroman-2-ylmethyl)-N2-(5,6-difluoro-1H-indol-3-yl)oxalamide] is 0.2 to 1 µM; for `O=C(NCC1(c2ccccc2)CC1)C(=O)Nc1c[nH]c2cc(F)c(F)cc12` [Compound 146, N1-(5,6-difluoro-1H-indol-3-yl)-N2-((1-phenylcyclopropyl)methyl)oxalamide] it is 0.2 to 1 µM.
With `Cc1ccc(OCCNC(=O)C(=O)Nc2c[nH]c3cc(F)c(F)cc23)cc1C` [Compound 147, N1-(5,6-difluoro-1H-indol-3-yl)-N2-(2-(3,4-dimethylphenoxy)ethyl)oxalamide], the EC50 fell in the range of 0.2 to 1 µM.
Consider `O=C(NCc1cccc2c1OC(F)(F)O2)C(=O)Nc1c[nH]c2cc(F)c(F)cc12` [Compound 148, N1-(5,6-difluoro-1H-indol-3-yl)-N2-((2,2-difluorobenzo[d] [1,3]dioxol-4-yl)methyl) oxalamide], for which the EC50 is 0.04 to 0.2 µM.
For the molecule `O=C(NCCOc1ccc(C(F)(F)F)cc1)C(=O)Nc1c[nH]c2cc(F)c(F)cc12` [Compound 149, N1-(5,6-difluoro-1H-indol-3-yl)-N2-(2-(4-(trifluoromethyl)phenoxy)ethyl) oxalamide], the half-maximal effective concentration (EC50) is 0.2 to 1 µM.
For the molecule `O=C(NCC1CCCC(F)(F)C1)C(=O)Nc1c[nH]c2cc(F)c(F)cc12` (stereo not drawn) [Compound 150, N1-(5,6-difluoro-1H-indol-3-yl)-N2-((3,3-difluorocyclohexyl)methyl)oxalamide], the EC50 lay in the range of 0.2 to 1 µM.
The figure for `O=C(NCC1CCC(F)(F)CC1)C(=O)Nc1c[nH]c2cc(F)c(F)cc12` [Compound 151, N1-(5,6-difluoro-1H-indol-3-yl)-N2-((4,4-difluorocyclohexyl)methyl) oxalamide] is 0.2 to 1 µM.
Turning to `O=C(NCCC1(C(F)(F)F)CC1)C(=O)Nc1c[nH]c2cc(F)c(F)cc12` [Compound 152, N1-(5,6-difluoro-1H-indol-3-yl)-N2-(2-(1-(trifluoromethyl)cyclopropyl)ethyl)oxalamide], the EC50 fell in the range of 0.2 to 1 µM.
Next, `CC1(CNC(=O)C(=O)Nc2c[nH]c3cc(F)c(F)cc23)CCC(F)(F)CC1` [Compound 153, N1-((4,4-difluoro-1-methylcyclohexyl)methyl)-N2-(5,6-difluoro-1H-indol-3-yl)oxalamide]: 1 to 5 µM; `Cc1cc(F)c(Cl)cc1NC(=O)C(=O)Nc1c[nH]c2cc(F)c(F)cc12` [Compound 154, N1-(5-chloro-4-fluoro-2-methylphenyl)-N2-(5,6-difluoro-1H-indol-3-yl)oxalamide]: 0.2 to 1 µM; `O=C(NCC(F)(F)c1ccccc1)C(=O)Nc1c[nH]c2cc(F)c(F)cc12` [Compound 155, N1-(5,6-difluoro-1H-indol-3-yl)-N2-(2,2-difluoro-2-phenylethyl) oxalamide]: 0.2 to 1 µM.
Consider `CC(NC(=O)C(=O)Nc1c[nH]c2cc(F)c(F)cc12)c1ccc(C(F)(F)F)cc1` (stereo not drawn) [Compound 156, N1-(5,6-difluoro-1H-indol-3-yl)-N2-(1-(4-(trifluoromethyl)phenyl)ethyl) oxalamide], for which the EC50 is 0.2 to 1 µM.
For `O=C(Nc1ccc(OCC(F)(F)F)nc1)C(=O)Nc1c[nH]c2cc(F)c(F)cc12` [Compound 157, N1-(5,6-difluoro-1H-indol-3-yl)-N2-(6-(2,2,2-trifluoroethoxy)pyridin-3-yl) oxalamide], the 50% effective concentration (EC50) was in the range of 0.2 to 1 µM.
The figure for `CC(CNC(=O)C(=O)Nc1c[nH]c2cc(F)c(F)cc12)Oc1ccc(C(F)(F)F)cc1` (stereo not drawn) [Compound 158, N1-(5,6-difluoro-1H-indol-3-yl)-N2-(2-(4-(trifluoromethyl)phenoxy)propyl) oxalamide] is 0.2 to 1 µM.
Next, `COc1ccc(CNC(=O)C(=O)Nc2c[nH]c3cc(F)c(F)cc23)cc1C(F)(F)F` [Compound 159, N1-(5,6-difluoro-1H-indol-3-yl)-N2-(4-methoxy-3-(trifluoromethyl)benzyl)oxalamide]: 0.2 to 1 µM.
The figure for `O=C(NCc1ccc(Cl)cc1C(F)(F)F)C(=O)Nc1c[nH]c2cc(F)c(F)cc12` [Compound 160, N1-(4-chloro-2-(trifluoromethyl)benzyl)-N2-(5,6-difluoro-1H-indol-3-yl)oxalamide] is 0.2 to 1 µM; for `COc1ccc(CNC(=O)C(=O)Nc2c[nH]c3cc(F)c(F)cc23)cc1Cl` [Compound 161, N1-(3-chloro-4-methoxybenzyl) N2-(5,6-difluoro-1H-indol-3-yl)oxalamide] it is 0.2 to 1 µM; for `O=C(NCc1cccc(N2CCCCC2)c1)C(=O)Nc1c[nH]c2cc(F)c(F)cc12` [Compound 162, N1-(5,6-difluoro-1H-indol-3-yl)-N2-(3-(piperidin-1-yl)benzyl) oxalamide] it is 0.2 to 1 µM.
With `O=C(NCc1cccc(C(F)(F)F)c1F)C(=O)Nc1c[nH]c2cc(F)c(F)cc12` [Compound 163, N1-(5,6-difluoro-1H-indol-3-yl)-N2-(2-fluoro-3-(trifluoromethyl)benzyl)oxalamide], the concentration for a half-maximal effect (EC50) was in the range of 0.2 to 1 µM.
For the molecule `O=C(NCc1ccc(Cl)c(C(F)(F)F)c1)C(=O)Nc1c[nH]c2cc(F)c(F)cc12` [Compound 164, N1-(4-chloro-3-(trifluoromethyl)benzyl)-N2-(5,6-difluoro-1H-indol-3-yl)oxalamide], the EC50 fell in the range of 0.04 to 0.2 µM.
The figure for `O=C(NCc1ccccc1C(F)(F)F)C(=O)Nc1c[nH]c2cc(F)c(F)cc12` [Compound 165, N1-(5,6-difluoro-1H-indol-3-yl)-N2-(2-(trifluoromethyl)benzyl)oxalamide] is 0.04 to 0.2 µM; for `O=C(NCc1cccc(OC(F)(F)F)c1)C(=O)Nc1c[nH]c2cc(F)c(F)cc12` [Compound 166, N1-(5,6-difluoro-1H-indol-3-yl)-N2-(3-(trifluoromethoxy)benzyl)oxalamide] it is 0.2 to 1 µM; for `Cc1c(NC(=O)C(=O)Nc2c[nH]c3cc(F)c(F)cc23)cccc1C(F)(F)F` [Compound 167, N1-(5,6-difluoro-1H-indol-3-yl)-N2-(2-methyl-3-(trifluoromethyl)phenyl)oxalamide] it is 0.2 to 1 µM.
On to `Cc1ccc(CNC(=O)C(=O)Nc2c[nH]c3ccc(-c4cnn(C(C)C)c4)cc23)cc1C(F)(F)F` [Compound 168], for which the EC50 lay in the range of 0.2 to 1 µM.
Next, `O=C(Nc1c[nH]c2cc(F)c(F)cc12)C(=O)NC1CCN(c2ccccc2)C1` (stereo not drawn) [Compound 169]: 0.2 to 1 µM.

As usually defined, the EC50 is the concentration that produces a half-maximal response.

Values taken from patent US20230021448A1, “COMPOUNDS AND COMPOSITIONS FOR TREATING CONDITIONS ASSOCIATED WITH STING ACTIVITY” (IFM Due, Inc., priority 2019, published 2023).
